According to US20150296790A1, “SILICON-CONTAINING COMPOUND AQUEOUS SOLUTION AND ANTIBACTERIAL/ANTIVIRAL AGENT INCLUDING SAID SOLUTION” (JEX CO., LTD., priority 2012, published 2015):

Experiment: Stability over time (three-month storage tests, visual)
Assay type: physicochemical
Settings: purified water

CCCCCCCCCCCCCCCCCC[N+](C)(C)CCC[Si](OCC)(OCC)OCC.[Cl-] [Compound E, Octadecyl dimethyl(3-triethoxysilylpropyl)ammonium chloride]
Change Over 3 Months (Accelerated Test at 40° C., Cold Test at 5° C., Ambient Test at 25° C.) (DEXYPEARL 1 w/w %, Compound E 0.1 w/w %): Not clear but stable | Change Over 3 Months (Accelerated Test at 40° C., Cold Test at 5° C., Ambient Test at 25° C.) (DEXYPEARL 2 w/w %, Compound E 0.1 w/w %): Not clear but stable | Change Over 3 Months (Accelerated Test at 40° C., Cold Test at 5° C., Ambient Test at 25° C.) (DEXYPEARL 3 w/w %, Compound E 0.1 w/w %): Not clear but stable | Change Over 3 Months (Accelerated Test at 40° C., Cold Test at 5° C., Ambient Test at 25° C.) (DEXYPEARL 4 w/w %, Compound E 0.1 w/w %): Not clear but stable | Change Over 3 Months (Accelerated Test at 40° C., Cold Test at 5° C., Ambient Test at 25° C.) (DEXYPEARL 5 w/w %, Compound E 0.1 w/w %): Not clear but stable | Change Over 3 Months (Accelerated Test at 40° C., Cold Test at 5° C., Ambient Test at 25° C.) (DEXYPEARL 6 w/w %, Compound E 0.1 w/w %): Not clear but stable | Change Over 3 Months (Accelerated Test at 40° C., Cold Test at 5° C., Ambient Test at 25° C.) (DEXYPEARL 7 w/w %, Compound E 0.1 w/w %): Not clear but stable | Change Over 3 Months (Accelerated Test at 40° C., Cold Test at 5° C., Ambient Test at 25° C.) (DEXYPEARL 8 w/w %, Compound E 0.1 w/w %): Not clear but stable | Change Over 3 Months (Accelerated Test at 40° C., Cold Test at 5° C., Ambient Test at 25° C.) (DEXYPEARL 9 w/w %, Compound E 0.1 w/w %): Not clear but stable | Change Over 3 Months (Accelerated Test at 40° C., Cold Test at 5° C., Ambient Test at 25° C.) (DEXYPEARL 10 w/w %, Compound E 0.1 w/w %): Not clear but stable | Change Over 3 Months (Accelerated Test at 40° C., Cold Test at 5° C., Ambient Test at 25° C.) (DEXYPEARL 20 w/w %, Compound E 0.1 w/w %): Precipitated | Change Over 3 Months (Accelerated Test at 40° C., Cold Test at 5° C., Ambient Test at 25° C.) (DEXYPEARL 30 w/w %, Compound E 0.1 w/w %): Precipitated | Change Over 3 Months (Accelerated Test at 40° C., Cold Test at 5° C., Ambient Test at 25° C.) (DEXYPEARL 40 w/w %, Compound E 0.1 w/w %): Precipitated | Change Over 3 Months (Accelerated Test at 40° C., Cold Test at 5° C., Ambient Test at 25° C.) (ISOELEAT 1 w/w %, Compound E 0.1 w/w %): Not clear but stable | Change Over 3 Months (Accelerated Test at 40° C., Cold Test at 5° C., Ambient Test at 25° C.) (ISOELEAT 2 w/w %, Compound E 0.1 w/w %): Not clear but stable | Change Over 3 Months (Accelerated Test at 40° C., Cold Test at 5° C., Ambient Test at 25° C.) (ISOELEAT 3 w/w %, Compound E 0.1 w/w %): Not clear but stable | Change Over 3 Months (Accelerated Test at 40° C., Cold Test at 5° C., Ambient Test at 25° C.) (ISOELEAT 4 w/w %, Compound E 0.1 w/w %): Not clear but stable | Change Over 3 Months (Accelerated Test at 40° C., Cold Test at 5° C., Ambient Test at 25° C.) (ISOELEAT 5 w/w %, Compound E 0.1 w/w %): Not clear but stable | Change Over 3 Months (Accelerated Test at 40° C., Cold Test at 5° C., Ambient Test at 25° C.) (ISOELEAT 6 w/w %, Compound E 0.1 w/w %): Not clear but stable | Change Over 3 Months (Accelerated Test at 40° C., Cold Test at 5° C., Ambient Test at 25° C.) (ISOELEAT 7 w/w %, Compound E 0.1 w/w %): Not clear but stable | Change Over 3 Months (Accelerated Test at 40° C., Cold Test at 5° C., Ambient Test at 25° C.) (ISOELEAT 8 w/w %, Compound E 0.1 w/w %): Not clear but stable | Change Over 3 Months (Accelerated Test at 40° C., Cold Test at 5° C., Ambient Test at 25° C.) (ISOELEAT 9 w/w %, Compound E 0.1 w/w %): Not clear but stable | Change Over 3 Months (Accelerated Test at 40° C., Cold Test at 5° C., Ambient Test at 25° C.) (ISOELEAT 10 w/w %, Compound E 0.1 w/w %): Precipitated | Change Over 3 Months (Accelerated Test at 40° C., Cold Test at 5° C., Ambient Test at 25° C.) (ISOELEAT 20 w/w %, Compound E 0.1 w/w %): Precipitated | Change Over 3 Months (Accelerated Test at 40° C., Cold Test at 5° C., Ambient Test at 25° C.) (ISOELEAT 30 w/w %, Compound E 0.1 w/w %): Precipitated | Change Over 3 Months (Accelerated Test at 40° C., Cold Test at 5° C., Ambient Test at 25° C.) (ISOELEAT 40 w/w %, Compound E 0.1 w/w %): Precipitated | Change Over 3 Months (Accelerated Test at 40° C., Cold Test at 5° C., Ambient Test at 25° C.) (ISOELEAT 50 w/w %, Compound E 0.1 w/w %): Precipitated | Change Over 3 Months (Accelerated Test at 40° C., Cold Test at 5° C., Ambient Test at 25° C.) (α-CD 1 w/w %, Compound E 0.1 w/w %): Stable | Change Over 3 Months (Accelerated Test at 40° C., Cold Test at 5° C., Ambient Test at 25° C.) (α-CD 1 w/w %, Compound E 0.2 w/w %): Stable | Change Over 3 Months (Accelerated Test at 40° C., Cold Test at 5° C., Ambient Test at 25° C.) (α-CD 1 w/w %, Compound E 0.3 w/w %): Stable | Change Over 3 Months (Accelerated Test at 40° C., Cold Test at 5° C., Ambient Test at 25° C.) (α-CD 1 w/w %, Compound E 0.4 w/w %): Stable | Change Over 3 Months (Accelerated Test at 40° C., Cold Test at 5° C., Ambient Test at 25° C.) (α-CD 1 w/w %, Compound E 0.5 w/w %): Stable | Change Over 3 Months (Accelerated Test at 40° C., Cold Test at 5° C., Ambient Test at 25° C.) (α-CD 1 w/w %, Compound E 0.6 w/w %): Stable | Change Over 3 Months (Accelerated Test at 40° C., Cold Test at 5° C., Ambient Test at 25° C.) (α-CD 1 w/w %, Compound E 0.7 w/w %): Stable | Change Over 3 Months (Accelerated Test at 40° C., Cold Test at 5° C., Ambient Test at 25° C.) (α-CD 1 w/w %, Compound E 0.8 w/w %): Clear but some precipitation was observed | Change Over 3 Months (Accelerated Test at 40° C., Cold Test at 5° C., Ambient Test at 25° C.) (α-CD 1 w/w %, Compound E 0.9 w/w %): Clear but some precipitation was observed | Change Over 3 Months (Accelerated Test at 40° C., Cold Test at 5° C., Ambient Test at 25° C.) (α-CD 1 w/w %, Compound E 1 w/w %): Clear but some precipitation was observed | Change Over 3 Months (Accelerated Test at 40° C., Cold Test at 5° C., Ambient Test at 25° C.) (α-CD 7 w/w %, Compound E 0.1 w/w %): Stable | Change Over 3 Months (Accelerated Test at 40° C., Cold Test at 5° C., Ambient Test at 25° C.) (α-CD 7 w/w %, Compound E 0.2 w/w %): Stable | Change Over 3 Months (Accelerated Test at 40° C., Cold Test at 5° C., Ambient Test at 25° C.) (α-CD 7 w/w %, Compound E 0.3 w/w %): Stable | Change Over 3 Months (Accelerated Test at 40° C., Cold Test at 5° C., Ambient Test at 25° C.) (α-CD 7 w/w %, Compound E 0.4 w/w %): Stable | Change Over 3 Months (Accelerated Test at 40° C., Cold Test at 5° C., Ambient Test at 25° C.) (α-CD 7 w/w %, Compound E 0.5 w/w %): Stable | Change Over 3 Months (Accelerated Test at 40° C., Cold Test at 5° C., Ambient Test at 25° C.) (α-CD 7 w/w %, Compound E 0.6 w/w %): Stable | Change Over 3 Months (Accelerated Test at 40° C., Cold Test at 5° C., Ambient Test at 25° C.) (α-CD 7 w/w %, Compound E 0.7 w/w %): Stable | Change Over 3 Months (Accelerated Test at 40° C., Cold Test at 5° C., Ambient Test at 25° C.) (α-CD 7 w/w %, Compound E 0.8 w/w %): Stable | Change Over 3 Months (Accelerated Test at 40° C., Cold Test at 5° C., Ambient Test at 25° C.) (α-CD 7 w/w %, Compound E 0.9 w/w %): Stable | Change Over 3 Months (Accelerated Test at 40° C., Cold Test at 5° C., Ambient Test at 25° C.) (α-CD 7 w/w %, Compound E 1 w/w %): Stable | Change Over 3 Months (Accelerated Test at 40° C., Cold Test at 5° C., Ambient Test at 25° C.) (β-CD 1 w/w %, Compound E 0.1 w/w %): Not changed | Change Over 3 Months (Accelerated Test at 40° C., Cold Test at 5° C., Ambient Test at 25° C.) (β-CD 1 w/w %, Compound E 0.2 w/w %): Not changed | Change Over 3 Months (Accelerated Test at 40° C., Cold Test at 5° C., Ambient Test at 25° C.) (β-CD 1 w/w %, Compound E 0.3 w/w %): Not changed | Change Over 3 Months (Accelerated Test at 40° C., Cold Test at 5° C., Ambient Test at 25° C.) (β-CD 1 w/w %, Compound E 0.4 w/w %): Not changed | Change Over 3 Months (Accelerated Test at 40° C., Cold Test at 5° C., Ambient Test at 25° C.) (β-CD 1 w/w %, Compound E 0.5 w/w %): Not changed | Change Over 3 Months (Accelerated Test at 40° C., Cold Test at 5° C., Ambient Test at 25° C.) (β-CD 1 w/w %, Compound E 0.6 w/w %): Not changed | Change Over 3 Months (Accelerated Test at 40° C., Cold Test at 5° C., Ambient Test at 25° C.) (β-CD 1 w/w %, Compound E 0.7 w/w %): Not changed | Change Over 3 Months (Accelerated Test at 40° C., Cold Test at 5° C., Ambient Test at 25° C.) (β-CD 1 w/w %, Compound E 0.8 w/w %): Not changed | Change Over 3 Months (Accelerated Test at 40° C., Cold Test at 5° C., Ambient Test at 25° C.) (β-CD 1 w/w %, Compound E 0.9 w/w %): Not changed | Change Over 3 Months (Accelerated Test at 40° C., Cold Test at 5° C., Ambient Test at 25° C.) (β-CD 1 w/w %, Compound E 1 w/w %): Not changed | Change Over 3 Months (Accelerated Test at 40° C., Cold Test at 5° C., Ambient Test at 25° C.) (γ-CD 10 w/w %, Compound E 0.1 w/w %): Precipitated | Change Over 3 Months (Accelerated Test at 40° C., Cold Test at 5° C., Ambient Test at 25° C.) (γ-CD 10 w/w %, Compound E 0.2 w/w %): Precipitated | Change Over 3 Months (Accelerated Test at 40° C., Cold Test at 5° C., Ambient Test at 25° C.) (γ-CD 10 w/w %, Compound E 0.3 w/w %): Precipitated | Change Over 3 Months (Accelerated Test at 40° C., Cold Test at 5° C., Ambient Test at 25° C.) (γ-CD 10 w/w %, Compound E 0.4 w/w %): Precipitated | Change Over 3 Months (Accelerated Test at 40° C., Cold Test at 5° C., Ambient Test at 25° C.) (γ-CD 10 w/w %, Compound E 0.5 w/w %): Precipitated | Change Over 3 Months (Accelerated Test at 40° C., Cold Test at 5° C., Ambient Test at 25° C.) (γ-CD 10 w/w %, Compound E 0.6 w/w %): Precipitated | Change Over 3 Months (Accelerated Test at 40° C., Cold Test at 5° C., Ambient Test at 25° C.) (γ-CD 10 w/w %, Compound E 0.7 w/w %): Precipitated | Change Over 3 Months (Accelerated Test at 40° C., Cold Test at 5° C., Ambient Test at 25° C.) (γ-CD 10 w/w %, Compound E 0.8 w/w %): Precipitated | Change Over 3 Months (Accelerated Test at 40° C., Cold Test at 5° C., Ambient Test at 25° C.) (γ-CD 10 w/w %, Compound E 0.9 w/w %): Precipitated | Change Over 3 Months (Accelerated Test at 40° C., Cold Test at 5° C., Ambient Test at 25° C.) (γ-CD 10 w/w %, Compound E 1 w/w %): Precipitated
